According to US9982011B2, “Legumain activated doxorubicin derivative as well as preparation method and application thereof” (priority 2012, dated 2018):
“Also recorded” adds a separate entry of the source. Where a name gives a salt, the structure may show the parent alone. Starred links: 1 amine or outer side, 2 acyl side, 3 side chain; linkers in the order of their positions; H or OH if unused. Residues, ends and D or L forms follow the SMILES beside them. *: point of attachment. Doxorubicin(3'-N) = COc1cccc2c1C(=O)c1c(O)c3c(c(O)c1C2=O)C[C@@](O)(C(=O)CO)C[C@@H]3O[C@H]1C[C@H](N*)[C@H](O)[C@H](C)O1; Suc = O=C(CCC(=O)[*:2])[*:1]

What was measured:
[1] = Metabolic half-life in mice blood
[2] = target: Cathepsin B (Homo sapiens, UniProt P07858); assay: In vitro binding to cathepsin absorbed on a 96-well plate (fluorescence of bound drug); settings: FIG. 1
Source text: The R6 group allows the drug to be able to target cathepsin (Cathepsin B) in the tumor microenvironment and inhibit the activity of cathepsin necessary for tumor growth, development and metastasis. […] The R6 group also allows the drug to have an additional function of targeting tumor, thus the drug has two targeted effects.
The test method was described as follows. Cathepsin was absorbed on a 96-well plate and blocked with BSA. Succinyl-AANL-DOX (SEQ ID NO: 2), S1 and a mixture of S1 and E-64 (an inhibitor for specific binding of cathepsin) were added to allow them to bind to the cathepsin on the 96-well plate. The unbound drugs were removed and the fluorescence of the bound drug was detected.

[3] = target: serum albumin (Mus musculus, UniProt P07724); settings: blood taken 10 minutes after intravenous tail injection
Sequence of serum albumin (P07724 25-608): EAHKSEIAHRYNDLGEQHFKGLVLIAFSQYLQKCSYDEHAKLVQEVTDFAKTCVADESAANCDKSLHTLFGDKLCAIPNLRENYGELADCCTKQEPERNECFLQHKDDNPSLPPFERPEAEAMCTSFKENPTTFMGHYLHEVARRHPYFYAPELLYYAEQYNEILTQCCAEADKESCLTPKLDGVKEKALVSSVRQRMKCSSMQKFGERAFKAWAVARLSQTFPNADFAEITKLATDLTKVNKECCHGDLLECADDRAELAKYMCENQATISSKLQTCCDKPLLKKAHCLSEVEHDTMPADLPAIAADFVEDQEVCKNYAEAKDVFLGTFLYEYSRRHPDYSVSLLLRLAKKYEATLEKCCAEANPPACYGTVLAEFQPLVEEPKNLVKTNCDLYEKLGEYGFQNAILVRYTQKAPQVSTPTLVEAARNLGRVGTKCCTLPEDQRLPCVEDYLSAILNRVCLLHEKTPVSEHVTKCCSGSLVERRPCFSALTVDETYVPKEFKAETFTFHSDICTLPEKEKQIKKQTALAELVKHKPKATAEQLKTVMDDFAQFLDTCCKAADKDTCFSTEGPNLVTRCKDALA
Description: Bloods were taken after 10 minutes and centrifuged to obtain serum. The proteins in the serum were precipitated by 70% ethanol.

[4] = tested on: 4T1 cells; assay: Efficacy in 4T1 tumor metastasis (lung) model in BALB/C mice; format: in vivo
Source text: Test purpose: to investigate the anti-tumor efficacy of S1 and S2 in a tumor metastasis treatment model from BALB/C mice.
Test drug: S1 and S2 injections, and doxorubicin hydrochloride injection, diluted to corresponding concentrations with physiological saline when testing.
1. Animal: BALB/C mice of 6-8 weeks old, all female.
1) 4T1 cells were purchased from American type culture collection (ATCC) and identified according the specification provided by ATCC. Cells were cultivated in DMEM culture medium containing 10% fetal bovine serum at 37° C. and 5% CO2. The cells were passaged for every three days and cells within the 15th passage were used.
2) Production of tumor metastasis. 10^6 […] were subcutaneously injected to the back of the BALB/C mice. Mice were randomly grouped after the tumor grew to about 1.5 cm. The subcutaneous tumor was removed by surgery and drug treatment began. Mice were killed after anesthesia on day 27. The whole lung was taken out and put into Bouin's solution for staining. The number of the tumor metastasized to lung was counted with anatomical microscope.
(§1) 3) Course of treatment. According to the clinical application of S1 and S2, drugs were intraperitoneally injected. A dose of 10 μmol/kg (<1/10 MTD) was used for the S1 treatment group, 10 μmol/kg (<1/10 MTD) for the S2 treatment group, and 3 μmol/kg (>1/2 MTD) for doxorubicin hydrochloride. The control group was administered with physiological saline. The drugs were administered daily for 8 days.

[5] = Maximum tolerated dose (MTD) / acute toxicity of a single injection in mice; settings: female, BALB/C, mouse, in vivo
Source text: (§2) Test purpose: to investigate the acute toxicity of the subject new drug formulation via MTD assay by intravenous administration to mice.
(§3) Test drug: S1 and S2 injections, diluted to the corresponding concentrations with physiological saline when tested.
(§4) Animal: the first class BALB/C mice, weighing 19-21 g and all mice being female.
(§5) Method and results: 36 female BALB/C mice weighing 19-21 g were randomly divided into 6 groups according to their body weights, with 6 mice in each group. […] Control tests were performed by injecting 0.2 ml physiological saline or doxorubicin hydrochloride. […] Blood samples were taken on the 3, 5 and 14 days for counting the whole blood cells. Animals were anatomized on day 14 to take the heart, liver, kidney, lung, spleen, and pancreas for HE staining.
(§6) The MTD for intravenous administration of a test drug is an important reference index for drug toxicity.

[6] = tested on: BALB/C mice; assay: as above
Source text: as §2, §3, §4, §5, §6

[7] = tested on: MDA-MB231 cells; assay: Efficacy in MDA-MB231 tumor model in nude mice; format: in vivo
Source text: Test purpose: to investigate the anti-tumor efficacy of S1 and S2 via mouse tumor treatment model.
Test drug: S1 and S2 injections, and doxorubicin hydrochloride injection, diluted to corresponding concentrations by physiological saline when testing.
1. Animal: nude mice of 6-8 weeks old, all female.
1) MDA-MB231 cells were purchased from American type culture collection (ATCC) and identified according the specification provided by ATCC.
2) Production of tumor. […] Mice were randomly grouped after the diameter of the tumor reached about 0.3 cm to 0.4 cm. Then treatment began.
as §1, with “According” for “3) Course of treatment. According”, “30 mg/kg (<1/2” for “10 μmol/kg (<1/10”, “4 mg/kg” for “3 μmol/kg”, “twice weekly” for “daily”, “three weeks.” for “8 days.”

[8] = lung, day 27, i.p. daily for 8 days, S1, S2 10 μmol/kg, doxorubicin hydrochloride 3 μmol/kg
[9] = 10 mg/kg, single injection, 6 female BALB/C mice

## COc1cccc2c1C(=O)c1c(O)c3c(c(O)c1C2=O)C[C@@](O)(C(=O)CO)C[C@@H]3O[C@@H]1C[C@H](NC(=O)[C@H](CC(C)C)NC(=O)[C@H](CC(N)=O)NC(=O)[C@H](C)NC(=O)[C@H](C)NC(=O)OC(C)(C)C)[C@H](O)[C@H](C)O1 [BOC-AANL-DOX]
[1]
  Metabolic half-life in the mice blood: 0.7 h

## CC(C)C[C@H](NC(=O)[C@H]1O[C@@H]1C(=O)O)C(=O)NCCCCN=C(N)N [Example E-64, E-64, reference compound]
[2]; mixture of S1 and E-64
  Competitive inhibition of the binding of S1 to cathepsin: could competitively inhibit the binding of S1; also recorded: binding can be inhibited by cathepsin inhibitor E-64

## COc1cccc2c1C(=O)c1c(O)c3c(c(O)c1C2=O)C[C@@](O)(C(=O)CO)C[C@@H]3O[C@H]1C[C@H](NC(=O)[C@H](CC(C)C)NC(=O)[C@H](CC(N)=O)NC(=O)[C@H](C)NC(=O)[C@H](C)NC(=O)CCC(=O)O)[C@H](O)[C@H](C)O1 [Succinyl-AANL-DOX, reference compound] (Suc-AANL-{Doxorubicin(3'-N)})
[1]
  Metabolic half-life in the mice blood: 37 h
[3]
  Binding to serum albumin / plasma protein in blood: did not bind to serum albumin in the blood plasma
[2]; cathepsin absorbed on 96-well plate, blocked with BSA
  Binding to cathepsin: did not bind to absorbed cathepsin

## COc1cccc2c1C(=O)c1c(O)c3c(c(O)c1C2=O)C[C@@](O)(C(=O)CO)C[C@@H]3O[C@H]1C[C@H](N)[C@H](O)[C@H](C)O1 [doxorubicin hydrochloride, reference compound]
[4]; [8]
  Inhibitory rate on metastasis: 31.4%
  Number of metastasized tumor: 98 ± 18
[4]; same method as Test Example 3
  Metastasis-inhibitory rate: 31.4%
[5]
  MTD at 17 days: 4 to 8 µmol/kg
[6]; [9]
  Mortality rate (%): 100%
  Number of dead animal: 6
[6]; Table 4, toxicity by the method of Test Example 1
  MDA-MB231: 7 mg/kg
[7]; 20 days, i.p. twice weekly for three weeks, S1, S2 30 mg/kg, doxorubicin hydrochloride 4 mg/kg
  Inhibitory rate of tumor, 20 days: 7.4%
[7]; 20 days, i.p. twice weekly for three weeks, S1, S2 30 mg/kg, doxorubicin hydrochloride 4 mg/kg, nude mice
  Size of tumor (mm^3), 20 days: 358.7 ± 39.7 mm^3
[7]; 38 days, i.p. twice weekly for three weeks, S1, S2 30 mg/kg, doxorubicin hydrochloride 4 mg/kg
  Inhibitory rate of tumor, 38 days: 29.1%
[7]; 38 days, i.p. twice weekly for three weeks, S1, S2 30 mg/kg, doxorubicin hydrochloride 4 mg/kg, nude mice
  Size of tumor (mm^3), 38 days: 881.2 ± 86.5 mm^3
[7]; day 38, same method as Test Example 2
  Tumor-inhibitory rate (day 38): 29.1%
